In paper PMC10408569, “Recruitment of hexahydroquinoline as anticancer scaffold targeting inhibition of wild and mutants EGFR (EGFR^WT, EGFR^T790M, and EGFR^L858R)” (Journal of Enzyme Inhibition and Medicinal Chemistry, 2023):

What was measured:
[1] = system: HOP-92 cells; assay: Cell cycle analysis by flow cytometry; type: cell-based, human; conditions: HOP-92, 10 µM, 24 h; for percentage of cells at the pre-G1 phase: control 3.05%; for cells at G2/M: control 12.98%; for proportion of cells in the S phase: control 31.46%; for percentage of cells in the G0/G1: control 55.38%
Protocol: Antitumor drugs can cause cell cycle arrest and death via activating signalling pathways[85]^,[86]. Cell growth in various cell cycle phases is measured by flow cytometry[87]^,[88]. […] We have treated HOP-92 cells with 10 µM of compounds 10c and 10d to incubate for 24 h. […] According to these observations, Compounds 10c and 10d induce apoptosis in NSC lung cancer, HOP-92, cells via cell cycle arrest at the pre-G1 phase as well as the G2/M phase (Figure 8(D)). […]
[…] Cellular mechanistic analysis
The examination of the cell cycle was done using flow cytometry. The test compound was applied to HOP-92 cells before they were cultured for 24 hours at 37 °C, 5% CO 2. After gathering and centrifuging the cell pellets, they were fixed in 70% (v/v) ethanol unde r the ice for 15 minutes. Pellets were once more collected and then incubated in a solution of 50 µg/mL propidium iodide (PI) and […]
0.1 mg/mL RNAse. […]

[2] = system: HOP-92 cells; assay: Annexin V-FITC apoptosis assay; type: cell-based, human; conditions: for total apoptosis, fold more than control / total apoptosis percentage: HOP-92; for early apoptosis ratio / late apoptosis ratio: HOP-92, 10 µM, 24 h; for early apoptosis ratio: control (DMSO) 0.70%; for late apoptosis ratio: control (DMSO) 1.80%; for total apoptosis percentage: control 2.5%
Source text: The most important mechanism chemotherapeutics eradicate cancer cells is apoptosis induction[78]^,[79]. Cellular alterations brought on by apoptosis include the translocation of phosphatidylserine (PS) from the inside to the outside via the plasma membrane[80]^,[81]. PS can be detected outside the plasma membrane using a sensitive probe called Annexin V, which can bind to PS[82]^,[83]. […] HOP-92 cells were also overexpressed in NSC lung cancer. Therefore, they were selected to be subjected to apoptosis assay. HOP-92 cells were stained with AV/PI for 24 h at a mixed molar concentration of 10 µM with compounds 10c and 10d (Figure 7(A,B)). […] These findings supported that the cytotoxic effects of compounds 10c and 10d were due to the apoptotic mechanism rather than the necrotic pathway. The results of compounds 10c and 10d compared to the control sample are presented as a bar chart (Figure 7(D)).
[…] Annexin V-FITC apoptosis assay
A protein known as annexin V-fluorescein isothiocyanate (Annexin V-FITC) binds phosphatidyl serine PS, which can be seen by staining. They used Annexin V-FITC and a propidium iodide counterstain (PI). Apoptosis was first induced by incubating cells in 96-microwell plates at a density of […] with the addition of the test substance (100 µL) for 24 hours. Then, 1-5 × 10^5 cells were centrifuged and resuspended in 500 µL of binding buffer. PI (5 µL) and Annexin V - FITC (5 µL) were added, and the mixture was incubated at room temperature for 5 minutes in the dark. An nexin -V -FITC binding was analyzed using A FACS C alibur flow cytometer (BD Biosciences, San Jose, CA). […]

[3] = system: NCI-H23; assay: NCI-60 anticancer screening (SRB); type: cell-based; conditions: Homo sapiens, five doses 0.01-100 µM, 48 h

CCOC(=O)C1=C(N)N(c2ccccc2)C2=C(C(=O)CC(C)(C)C2)C1c1ccc(Cl)cc1Cl (racemic) [10c, (±)-Ethyl 2-amino-4–(2,4-dichlorophenyl)-7,7-dimethyl-5-oxo-1-phenyl-1,4,5,6,7,8-hexahydroquinoline-3-carboxylate]
percentage of cells at the pre-G1 phase [1]: 25.82%
cells at G2/M [1]: 34.07%
proportion of cells in the S phase [1]: 20.18%
percentage of cells in the G0/G1 [1]: 45.75%
total apoptosis, fold more than control [2]: approximately 10 fold
early apoptosis ratio [2]: 8.74%
late apoptosis ratio [2]: 15.44%
total apoptosis percentage [2]: 24.18%
GI50 [3]: 2510 nM

CCOC(=O)C1=C(N)N(c2ccc(Cl)cc2)C2=C(C(=O)CC(C)(C)C2)C1c1ccc(Cl)cc1Cl (racemic) [10d, (±)-Ethyl 2-amino-1–(4-chorophenyl)-4–(2,4-dichlorophenyl)-7,7-dimethyl-5-oxo-1-phenyl-1,4,5,6,7,8-hexahydroquinoline-3-carboxylate]
percentage of cells at the pre-G1 phase [1]: 21.55%
cells at G2/M [1]: 49.21%
proportion of cells in the S phase [1]: 25.42%
percentage of cells in the G0/G1 [1]: 25.37%
total apoptosis, fold more than control [2]: ~8 fold
early apoptosis ratio [2]: 7.68%
late apoptosis ratio [2]: 12.15%
total apoptosis percentage [2]: 19.83%
